B1: Evolocumab (antibody, chains of the INN, looked up, V domains shown)
VH: EVQLVQSGAEVKKPGASVKVSCKASGYTLTSYGISWVRQAPGQGLEWMGWVSFYNGNTNYAQKLQGRGTMTTDPSTSTAYMELRSLRSDDTAVYYCARGYGMDVWGQGTTVTVSS
VL: ESALTQPASVSGSPGQSITISCTGTSSDVGGYNSVSWYQQHPGKAPKLMIYEVSNRPSGVSNRFSGSKSGNTASLTISGLQAEDEADYYCNSYTSTSMVFGGGTKLTVL

Assays:
[1] = test system: LXR target genes (FAS and SREBP1) in hepatocytes; assay: Expression of LXR target genes in hepatocytes (QPCR); format: cell-based, mouse; conditions: 0.2 μM, 24 h
Procedure: FIG. 6A-6D. mDNP-LXR-L delivered LXR ligand appropriately increases gene expression leading to increased FC efflux. FIGS. 6A and 6B: MPMs (FIG. 6A) or Primary hepatocytes (FIG. 6B) were plated in 6-well culture dishes and incubated with either LXR ligand T0901317 or mDNP or mDNP-LXR-L (0.2 μM) for 24 h; untreated cells were used as Controls. Expression of LXR target genes (ABCA1 and ABCG1 in MPMs and FAS and SREBP1 in hepatocytes) was evaluated by QPCR using total RNA as described under “Methods”. Data (Mean±SD, n=3) are expressed as fold increase over Controls. FIG. 6C: MPMs were plated in 6-well plates were exposed to either LXR ligand T0901317 or mDNP or mDNP-LXR-L (0.2 μM) for 24 h. Cells were washed once with cold PBS and harvested in cold buffer on ice as described under “Methods”. Following disruption of cells by sonication and removal of cell debris, CEH activity was measured using a radiometric assay. CEH activity (Mean±SD, n=3) is expressed as % untreated Controls. FIG. 6D: MPMs, plated in 24-well plate, were loaded and labeled with [^3H]-cholesterol as described under “Methods”. During the 24 h equilibration, cells were exposed to either LXR ligand T0901317 or mDNP or mDNP-LXR-L (0.2 μM). FC efflux to medium containing 10% FBS was monitored for 8 and 24 h. Data (Mean±SD, n=6) are expressed as % efflux. *P<0.05 and NS—not significant. […]

[2] = test system: atherosclerotic plaque volume in patients; conditions: randomized controlled trial; cited from earlier work

Molecule | expression of FAS and SREBP1 [1] | decrease in atheroma volume [2]
O=S(=O)(c1ccccc1)N(CC(F)(F)F)c1ccc(C(O)(C(F)(F)F)C(F)(F)F)cc1 [free LXR-L, T0901317] | significant increase | 
B1 |  | 0.95%

Reference: patent publication US11801309B2, “Carbohydrate-functionalized nanoparticles and uses thereof” (VIRGINIA COMMONWEALTH UNIVERSITY INTELLECTUAL PROPERTY …, priority 2016, dated 2023)
